Source: ChEMBL document CHEMBL3098130, “Discovery of Novel Putative Inhibitors of UDP-GlcNAc 2-Epimerase as Potent Antibacterial Agents” (ACS Med Chem Lett, 2013)

What was measured:
Assay type in all cases: functional
Conditions in all cases: read-out: GI
Bacillus anthracis [1] = experiment: Antibacterial activity against Bacillus anthracis Sterne assessed as growth inhibition at 3 uM measured every 2 mins for 16 to 20 hrs by spectramax 96-well plate reader analysis
Staphylococcus aureus [2] = experiment: Antibacterial activity against methicillin-resistant Staphylococcus aureus assessed as growth inhibition at 3 uM measured every 2 mins for 16 to 20 hrs by spectramax 96-well plate reader analysis
Staphylococcus aureus [3] = experiment: Antibacterial activity against methicillin-resistant Staphylococcus aureus assessed as growth inhibition at 30 uM measured every 2 mins for 16 to 20 hrs by spectramax 96-well plate reader analysis
Bacillus anthracis [4] = experiment: Antibacterial activity against Bacillus anthracis Sterne assessed as growth inhibition at 30 uM measured every 2 mins for 16 to 20 hrs by spectramax 96-well plate reader analysis
Bacillus anthracis [5] = experiment: Antibacterial activity against Bacillus anthracis Sterne assessed as growth inhibition at 10 uM measured every 2 mins for 16 to 20 hrs by spectramax 96-well plate reader analysis
Staphylococcus aureus [6] = experiment: Antibacterial activity against methicillin-resistant Staphylococcus aureus assessed as growth inhibition at 10 uM measured every 2 mins for 16 to 20 hrs by spectramax 96-well plate reader analysis

SMILES	inhibition of growth at 3 µM (Bacillus anthracis [1])	inhibition of growth at 3 µM (Staphylococcus aureus [2])	inhibition of growth at 30 µM (Staphylococcus aureus [3])	inhibition of growth at 30 µM (Bacillus anthracis [4])	inhibition of growth at 10 µM (Bacillus anthracis [5])	inhibition of growth at 10 µM (Staphylococcus aureus [6])
O=C(O)C(Cc1ccccc1)N1C(=O)/C(=C\c2ccc(-c3ccc(I)cc3)o2)NC1=S (centres undefined)	50%	0%	90%	100%	100%	90%
O=C1NC(=S)NC(=O)C1=Cc1ccc(-c2ccc(Br)c(Cl)c2)o1				96.6%		
COc1ccc(-c2ccc(/C=C3/NC(=S)N(C(Cc4ccccc4)C(=O)O)C3=O)s2)cc1 (centres undefined)	0%	0%	20%	100%	0%	10%
O=C(O)C(Cc1ccccc1)N1C(=O)/C(=C\c2ccc(-c3ccc(Br)c(Cl)c3)s2)NC1=S (centres undefined)	20%		0%	90%	10%	10%
O=C(O)C(Cc1ccccc1)N1C(=O)/C(=C\c2ccc(-c3ccc(OC(F)(F)F)cc3)o2)NC1=S (centres undefined)	10%	0%	100%	100%	100%	10%
O=C(O)C(Cc1ccccc1)N1C(=O)/C(=C\c2ccc(-c3ccccc3)o2)NC1=S (centres undefined)	0%	0%	10%	20%	10%	10%
CCC(C(=O)O)N1C(=O)/C(=C\c2ccc(-c3ccc(Cl)c(Cl)c3)o2)NC1=S (centres undefined)	0%	0%	90%	90%	100%	0%
N#CNC(=O)C(Cc1ccccc1)N1C(=O)/C(=C\c2ccc(-c3ccc(Cl)c(Cl)c3)o2)NC1=S (centres undefined)	0%	0%	100%	100%	100%	0%
O=C(O)C(Cc1ccccc1)N1C(=O)/C(=C\c2ccc(-c3cc(Cl)cc(Cl)c3)o2)NC1=S (centres undefined)	0%	0%	90%	100%	0%	10%
CCOC(=O)C(Cc1ccccc1)N1C(=O)/C(=C\c2ccc(-c3ccc(Cl)c(Cl)c3)o2)NC1=S (centres undefined)			0%	0%	50%	0%
O=C(O)C(Cc1ccccc1)N1C(=O)/C(=C\c2ccc(-c3ccc(Cl)cc3)o2)NC1=S (centres undefined)	0%	10%	90%	100%	70%	20%
O=C(O)C(Cc1ccccc1)N1C(=O)/C(=C\c2ccc(-c3ccc(Cl)c(Cl)c3)s2)NC1=S (centres undefined)	0%	10%	40%	90%	110%	10%
